Columns and labels:
Type in all cases: in vivo
[1] = system: Sphaerotheca fulidinea; assay: Test Example 6: penetration effect against cucumber powdery mildew; conditions: isofetamid 400 ppm + product 0.025 wt %, leaf adaxial surface, 1,000 L/ha; abaxial inoculation after 4 days
Excerpt: Cucumber (cultivar: Sagamihanjiro Fushinari) was cultivated in a polyethylene pot having a diameter of 7.5 cm, and when the cucumber reached 1.5-leaf stage, an isofetamid 400 ppm solution prepared by adding an aqueous solution (0.025 wt %) of each of products containing the component (b) as identified in Table 6 to isofetamid was applied to the leaf adaxial surface by means of a spray gun in an amount corresponding to 1,000 L/ha. The cucumber was cultivated in a greenhouse for 4 days, and then the leaf abaxial side was sprayed and inoculated with a suspension of conidia of Sphaerotheca fulidinea, and the cucumber was cultivated in a room at 22° C. under illumination for 7 days. The lesion area ratio on the abaxial side of the first leaf was examined, and the control value was calculated based on the following formula. Control value=(1−a/b)×100
(§1) a: lesion area ratio in treated plot, b: lesion area ratio in non-treated plot

[2] = system: Sphaerotheca fulidinea; assay: Test Example 4: rainfastness against cucumber powdery mildew; conditions: isofetamid 200 ppm + product 0.05 wt %, 1,000 L/ha; after 2 days rainfall 40 mm per hour for one hour, then adaxial inoculation
Procedure: Cucumber (cultivar: […] After the chemical solution dried, the cucumber was cultivated in a greenhouse for 2 days, and rainfall treatment (rainfall intensity: 40 mm per hour) was carried out by means of an artificial rainfall apparatus for one hour, and after drying, the leaf adaxial surface was sprayed and inoculated with a suspension of conidia of Sphaerotheca fulidinea, and the cucumber was cultivated in a room at 20° C. under illumination for 7 days. The lesion area ratio on the adaxial surface of the first leaf was examined, and the control value was calculated based on the following formula. […] a: lesion area ratio in treated plot, b: lesion area ratio in non-treated plot

[3] = system: Corynespora cassiicora; assay: Test Example 5: penetration effect against cucumber leaf spot with different surfactant concentrations; conditions: isofetamid 200 ppm without component (b); abaxial inoculation after 3 days
Procedure: Cucumber (cultivar: […] The cucumber was cultivated in a greenhouse for 3 days, and the leaf abaxial side was sprayed and inoculated with a suspension of conidia of Corynespora cassiicora, and the cucumber was kept under humidified chamber conditions at 23° C. for 24 hours. […] a: lesion area ratio in treated plot, b: lesion area ratio in non-treated plot

[4] = system: Corynespora cassiicora; assay: Test Example 7: residual effect against cucumber leaf spot; conditions: isofetamid 200 ppm + product 0.05 wt %, four-leaf stage, 1,000 L/ha; inoculation after 7 days
Procedure: Cucumber (cultivar: […] After the chemical solution dried, the cucumber was cultivated in a greenhouse for 7 days, and the cucumber was sprayed and inoculated with a suspension of conidia of Corynespora cassiicora, and kept under humidified chamber conditions at 23° C. for 24 hours. Thereafter, the cucumber was cultivated in a room at 20° C. under illumination for 7 days. The lesion area ratio on the first leaf was examined, and the control value was calculated based on the following formula. The obtained results are shown in Table 7. […] a: lesion area ratio in treated plot, b: lesion area ratio in non-treated plot

[5] = system: Corynesbora cassiicora; assay: Test Example 3: curative effect against cucumber leaf spot; conditions: inoculated 24 hours before treatment; isofetamid 400 ppm + product 0.05 wt %, 1,000 L/ha; examined 7 days after inoculation
Excerpt: Cucumber (cultivar: […] The leaf was air-dried, and an isofetamid 400 ppm solution prepared by adding an aqueous solution (0.05 wt %) of each of products containing the component (b) as identified in Table 3 to isofetamid, was applied by means of a spray gun in an amount corresponding to 1,000 L/ha. […] a: lesion area ratio in treated plot, b: lesion area ratio in non-treated plot

[6] = system: Sphaerotheca fulidinea; assay: Test Example 1: penetration effect against cucumber powdery mildew; conditions: isofetamid 400 ppm + product 0.05 wt %, leaf adaxial surface, 1,000 L/ha, abaxial inoculation after 4 days, No addition = without component (b)
Procedure: Cucumber (cultivar: Sagamihanjiro Fushinari) was cultivated in a polyethylene pot having a diameter of 7.5 cm, and when the cucumber reached 1.5-leaf stage, an isofetamid 400 ppm solution prepared by adding an aqueous solution (0.05 wt %) of each of products containing the component (b) as identified in Tables 1-1 to 1-6 to isofetamid, was applied to the leaf adaxial surface by means of a spray gun in an amount of 1,000 L/ha (20 ml/0.2 m^2). After the chemical solution dried, the cucumber was cultivated in a greenhouse for 4 days, the leaf abaxial surface was sprayed and inoculated with a suspension of conidia of Sphaerotheca fulidinea, and the cucumber was cultivated in a room at 22° C. under illumination for 7 to 8 days. The lesion area ratio on the abaxial surface of the first leaf was examined, and the control value was calculated based on the following formula. In Tables, “no addition” means the above treatment without adding the component (b) (the same applies hereinafter). Control value=(1−a/b)×100
as §1

[7] = system: Corynesbora cassiicora; assay: Test Example 2: penetration effect against cucumber leaf spot; conditions: isofetamid 400 ppm + product 0.05 wt %, leaf adaxial surface, 1,000 L/ha; abaxial inoculation after 4 days; examined 7 days after inoculation
Excerpt: Cucumber (cultivar: Natsusuzumi) was cultivated in a polyethylene pot having a diameter of 7.5 cm, and when the cucumber reached 1.5-leaf stage, an isofetamid 400 ppm solution prepared by adding an aqueous solution (0.05 wt %) of each of products containing the component (b) as identified in Table 2 to isofetamid, was applied to the leaf adaxial surface by means of a spray gun in an amount corresponding to 1,000 L/ha. The cucumber was cultivated in a greenhouse for 4 days, and the leaf abaxial surface was sprayed and inoculated with a suspension of conidia of Corynesbora cassiicora, and the cucumber was kept under humidified chamber conditions at 23° C. for 24 hours. Thereafter, the cucumber was kept in a thermostatic chamber at 20° C., and 7 days after the inoculation, the lesion area ratio on the first leaf was examined, and the control value was calculated based on the following formula. Control value=(1−a/b)×100

Cc1cc(OC(C)C)ccc1C(=O)C(C)(C)NC(=O)c1sccc1C [No addition, isofetamid]
Control value [1]: 54.6 | Control value [2]: 62 | Control value [3]: 66.7 | Control value [4]: 80 | Control value [5]: 0 | Control value ([6]; Table 1-1): 0 | Control value ([6]; Table 1-2): 6 | Control value ([6]; Table 1-3): 4 | Control value ([6]; Table 1-4): 11 | Control value ([6]; Table 1-5): 14 | Control value ([6]; Table 1-6): 68 | Control value [7]: 68
